One may read the melting point as the temperature of the solid-liquid transition.

Take `Cc1ccc(-c2ccc3c(c2)C=C(C(=O)Nc2ccc(C4=NCCN4)cc2)CCO3)cc1` [Compound 92, N-[4-(2-imidazolin-2-yl)phenyl]-7-(4-methylphenyl)-2,3-dihydro-1-benzooxepine-4-carboxamide]: the melting point is 282 to 283 °C.
As for `CCOCCOc1c(C)cc(Oc2ccc3c(c2)C=C(C(=O)Nc2ccc(CN(C)C4CCOCC4)cc2)CCS3(=O)=O)cc1C` [Compound 126, 7-[4-(2-ethoxyethoxy)-3,5-dimethylphenoxy]-N-[4-[[N-methyl-N-(tetrahydro-2H-pyran-4-yl)amino]methyl]phenyl]-1,1-dioxo-2,3-dihydro-1-benzothiepine-4-carboxamide], the melting point lay within 111 to 113 °C.
With `Cc1ccc(COc2cccc(/C=C/c3ccc(CN4CCCCC4)cc3)c2)cc1` [Compound 97, (E)-1-[4-[3-(4-methylbenzyloxy)styryl]benzyl]piperidine] the figure was 87 to 88 °C; with `Cc1ccc(-c2ccc3c(c2)C=C(C(=O)NC2CCN(Cc4ccccc4)CC2)CCO3)cc1` [Compound 58, N-(1-benzylpiperidin-4-yl)-7-(4-methylphenyl)-2,3-dihydro-1-benzooxepine-4-carboxamide], 161 to 162 °C (dec.); with `Cc1ccc(C2=Cc3cc(C(=O)N[C@H]4CC[C@H](CN(C)C5CCOCC5)CC4)ccc3OC2)cc1` [Compound 68, trans-3-(4-methylphenyl)-N-[4-[N-methyl-N-(tetrahydropyran-4-yl)aminomethyl]cyclohexyl]-2H-1-benzopyran-6-carboxamide], 205 to 207 °C.
For `Cc1ccc(-c2ccc3c(c2)C=C(C(=O)Nc2ccc(C(=N)N)cc2)CCO3)cc1.Cl`, the melting point was 294 to 296 °C.
With `Cc1ccc(-c2ccc3c(c2)C=C(CN2CCC(NC4CCOCC4)CC2)CCO3)cc1` [Compound 80, 1-(7-(4-methylphenyl)-2,3-dihydro-1-benzooxepin-4-yl)methyl-4-((tetrahydropyran-4-yl)amino)piperidine] the figure was 101 to 103 °C; with `Cc1ccc(-c2csc(/C=C/C(=O)N[C@H]3CC[C@H](CN(C)C4CCOCC4)CC3)c2)cc1` [Compound 72, (trans, E)-3-[4-(4-methylphenyl)thiophen-2-yl]-N-[4-[N-methyl-N-(tetrahydropyran-4-yl)aminomethyl]cyclohexyl]acrylamide], 180 to 183 °C.
The value for `CCCOc1cccc(Oc2ccc3c(c2)C=C(C(=O)Nc2ccc(CN(C)C4CCOCC4)cc2)CCS3(=O)=O)c1` [Compound 112, N-[4-[[N-methyl-N-(tetrahydropyran-4-yl)amino]methyl]phenyl]-7-(3-propoxyphenoxy)-1,1-dioxo-2,3-dihydro-1-benzothiepine-4-carboxamide] was 143 to 144 °C.
The value for `Cc1ccc(C2=Cc3cc(C(=O)Nc4ccc(C[N+](C)(C)C5CCOCC5)cc4)ccc3OC2)cc1.[I-]` [Compound 28, N,N-dimethyl-N-[4-[[3-(4-methylphenyl)-2H-1-benzopyran-6-carbonyl]amino]benzyl]-4-tetrahydropyranylammonium iodide] was 215 to 218 °C (dec.).
Regarding `CCOCCCc1ccc(Oc2ccc3c(c2)C=C(C(=O)Nc2ccc(CN(C)C4CCOCC4)cc2)CCS3(=O)=O)cc1` [Compound 125, 7-[4-(3-ethoxypropyl)phenoxy]-N-[4-[[N-methyl-N-(tetrahydro-2H-pyran-4-yl)amino]methyl]phenyl]-1,1-dioxo-2,3-dihydro-1-benzothiepine-4-carboxamide], the melting point fell in the range of 156 to 157 °C.
On to `CCOc1ccccc1COc1ccc2c(c1)C=C(C(=O)Nc1ccc(CN(C)C3CCOCC3)cc1)CCS2(=O)=O` [Compound 101, 7-[(2-ethoxybenzyl)oxy]-N-[4-[[N-methyl-N-(tetrahydropyran-4-yl)amino]methyl]phenyl]-1,1-dioxo-2,3-dihydro-1-benzothiepine-4-carboxamide], for which the melting point lay in the range of 211 to 214 °C.

Source of the values: patent US6627651B1, “Cyclic compounds and uses thereof” (Takeda Chemical Industries, Ltd., priority 1999, dated 2003).
